Test results from patent publication US20110171275A1, “GASTRORETENTIVE DRUG DELIVERY SYSTEM, PREPARATION METHOD AND USE THEREOF” (TEAM ACADEMY OF PHARMACEUTICAL SCIENCE, priority 2008, published 2011).

Experiment: Solubility in artificial gastric juice versus artificial intestinal fluid
Assay type: physicochemical
Conditions: artificial gastric juice vs artificial intestinal fluid
Experimental: Rosiglitazone is a second-generation thiazolidinedione hypoglycemic agent. Gastric floating tablets of rosiglitazone reported in the literature are prepared by conventional preparation techniques for gastric floating tablets as follows: the hydrophilic gel material with high viscosity, i.e., hydroxypropyl methyl cellulose (HPMC) is selected, to which appropriate amount of foaming agent is added, and then the resulting mixture is compressed into tablets by direct powder compression. The resulting gastric floating tablets are claimed to have the same bioavailability with common tablets administered in a multiple doses [Hao Feng, Zhimin Wang, Dawei Chen, Studies on floating sustained release tablets of rosiglitazone maleate, Journal of China Pharmaceutical University, 2002, 33 (3): 196-199]. […] The gas-vesicle-type floating formulation of the present invention can ensure that the density of the formulation is relatively small (generally<0.6 g/cm^3), thereby it can float at the early stage of administration, since the shape of the capsule keeps unchange in the stomach. Thus, the entire volume of the formulation remains relatively stable, so that stable and sustainable floating capacity is achieved.

solubility in artificial gastric juice relative to artificial intestinal fluid: about a million times more
Structure (SMILES): CN(CCOc1ccc(CC2SC(=O)NC2=O)cc1)c1ccccn1 (stereo not shown) [rosiglitazone]
